Entries after “also recorded” stand apart in the source; their conditions may differ. Read-outs that look alike come from different tables or passages of the source.
How the values were obtained:
[1] = Conversion of solid form when left in the crystallization mixture; format: physicochemical
Method: In particular: (A) is a representative X-ray diffraction pattern of Ritonavir(I); (B) is an X-ray diffraction pattern of a sample of Ritonavir(V) after being left in the crystallization mixture for approximately 16 hours, with arrows indicating peaks that signify the presence of Ritonavir(I); and (C) is a representative X-ray diffraction pattern of Ritonavir(V). […] In particular: (A) provides a DSC trace of Ritonavir(I); (B) provides a DSC trace of a sample of Ritonavir(V) after being left in the crystallization mixture for approximately 16 hours, wherein two peaks are observed corresponding to Forms I and V; and (C) is a representative DSC trace of Ritonavir(V). Ritonavir(V) is readily prepared from solvent systems (e.g., binary solvent systems) comprised of an acetate and acetonitrile. In particular, it was discovered that after Ritonavir is dissolved in such a solvent system at an elevated temperature (e.g., about 70° C.), the slow cooling of the resulting mixtures (e.g., at a rate of about 5° C./minute until a temperature of about 5° C. is reached) typically yields crystals of Ritonavir(V), which can be isolated by filtration and optionally dried by air. Specific solvent systems comprise from about 25 to about 50 volume percent acetonitrile.

[2] = Thermal Gravimetric Analysis (TGA) weight loss; format: physicochemical; details: heated 10° C./min under dry nitrogen
Text: TGA data were collected for each of the forms using a Q500 Thermogravimetric Analyzer (TA Instruments, 109 Lukens Drive, New Castle, Del. 19720), which uses as its control software Advantage for QW-Series, version 1.0.0.78, Thermal Advantage Release 2.0, © 2001 (TA instruments—Waters LLC). An aliquot of the sample was transferred into a platinum sample pan (Pan part # 952019.906; TA Instruments, 109 Lukens Drive, New Castle, Del. 19720). The pan was placed on the loading platform and was then automatically loaded in to the apparatus using the control software. Thermograms were typically obtained by individually heating the sample at 10° C./min from 25° C. to 300° C. under flowing dry nitrogen (compressed nitrogen, grade 4.8, BOC Gases, 575 Mountain Avenue, Murray Hill, N.J. 07974-2082), with a sample purge flow rate of 60 ml/min and a balance purge flow rate of 40 ml/min. Thermal transitions (weight changes) were viewed and analyzed using the analysis software Universal Analysis 2000 for Windows 95/95/2000/NT, version 3.1E; Build 3.1.0.40, © 1991–2001 (TA instruments—Waters LLC), provided with the instrument.
Using the DSC and TGA data obtained for Ritonavir Forms III, IV, and V, and published data for Forms I and II, the different thermal characteristics of each of the forms of Ritonavir were determined. These characteristics are provided below in Table 1: […]

[3] = Conversion of solid form on contact with aqueous media; format: physicochemical
Text: Ritonavir(IV) can be prepared from Ritonavir(III). In a particular method, Ritonavir(III) is contacted with an aqueous medium for an amount of time sufficient to effect the change. For example, Ritonavir(III) placed on a vacuum filter can be washed with deionized water, thereby providing Ritonavir(IV).

[4] = data for Forms I and II obtained from Chemburkar; cited from earlier work
[5] = crystalline form, oral; cited from earlier work

CC(C)c1nc(CN(C)C(=O)N[C@H](C(=O)N[C@@H](Cc2ccccc2)C[C@H](O)[C@H](Cc2ccccc2)NC(=O)OCc2cncs2)C(C)C)cs1 (relative stereo) [Form V, 10-hydroxy-2-methyl-5-(1-methylethyl)-1-[2-(1-methylethyl)-4-thiazolyl]-3,6-dioxo-8,11-bis(phenylmethyl)-2,4,7,12-tetraazatridecan-13-oic acid, 5-thiazolylmethyl ester, [5S-(5R*,8R*,10R*,11R*)]]
form conversion when left in crystallization mixture (X-ray diffraction, DSC) ([1]; approximately 16 hours at nucleation temperature of 5° C.): formed Ritonavir(I)
form conversion on prolonged time in crystallization mixture ([1]; prolonged period of time (hours to days), listed as Ritonavir(V)): form a mixture of Forms V and I; also recorded: provides Ritonavir Form I
TGA % weight loss (up to 130° C.) ([2]; listed as V): <0.3%

CC(C)c1nc(CN(C)C(=O)N[C@H](C(=O)N[C@@H](Cc2ccccc2)C[C@H](O)[C@H](Cc2ccccc2)NC(=O)OCc2cncs2)C(C)C)cs1 (relative stereo) [Form IV, 10-hydroxy-2-methyl-5-(1-methylethyl)-1-[2-(1-methylethyl)-4-thiazolyl]-3,6-dioxo-8,11-bis(phenylmethyl)-2,4,7,12-tetraazatridecan-13-oic acid, 5-thiazolylmethyl ester, [5S-(5R*,8R*,10R*,11R*)]]
form conversion on exposure to an aqueous environment ([3]; aqueous environment, extended time, about 15 to about 60 minutes): converts to Ritonavir Form I
form conversion on prolonged exposure to an aqueous environment ([3]; prolonged exposure to aqueous environment): converts the compound to Ritonavir Form II
TGA % weight loss (up to 130° C.) ([2]; listed as IV): 4—9%

CC(C)c1nc(CN(C)C(=O)N[C@H](C(=O)N[C@@H](Cc2ccccc2)C[C@H](O)[C@H](Cc2ccccc2)NC(=O)OCc2cncs2)C(C)C)cs1 (single isomer, unassigned) [Form II, 10-hydroxy-2-methyl-5-(1-methylethyl)-1-[2-(1-methylethyl)-4-thiazolyl]-3,6-dioxo-8,11-bis(phenylmethyl)-2,4,7,12-tetraazatridecan-13-oic acid, 5-thiazolylmethyl ester, [5S-(5R*,8R*,10R*,11R*)]]
TGA % weight loss (up to 130° C.) [4]: <0.3%
bioavailability [5]: poor bioavailability

CC(C)c1nc(CN(C)C(=O)N[C@H](C(=O)N[C@@H](Cc2ccccc2)C[C@H](O)[C@H](Cc2ccccc2)NC(=O)OCc2cncs2)C(C)C)cs1 (single isomer, unassigned) [Form I, 10-hydroxy-2-methyl-5-(1-methylethyl)-1-[2-(1-methylethyl)-4-thiazolyl]-3,6-dioxo-8,11-bis(phenylmethyl)-2,4,7,12-tetraazatridecan-13-oic acid, 5-thiazolylmethyl ester, [5S-(5R*,8R*,10R*,11R*)]]
TGA % weight loss (up to 130° C.) [4]: <0.3%
bioavailability [5]: not bioavailable; also recorded: poor bioavailability

CC(C)c1nc(CN(C)C(=O)N[C@H](C(=O)N[C@@H](Cc2ccccc2)C[C@H](O)[C@H](Cc2ccccc2)NC(=O)OCc2cncs2)C(C)C)cs1 (relative stereo) [Form III, 10-hydroxy-2-methyl-5-(1-methylethyl)-1-[2-(1-methylethyl)-4-thiazolyl]-3,6-dioxo-8,11-bis(phenylmethyl)-2,4,7,12-tetraazatridecan-13-oic acid, 5-thiazolylmethyl ester, [5S-(5R*,8R*,10R*,11R*)]]
form conversion while washed or incubated in aqueous media (DSC trace, FIG. 17) ([3]; washed or incubated in aqueous media): conversion of Ritonavir Form III to Form IV, and subsequently to Form I
TGA % weight loss (up to 130° C.) ([2]; listed as III): 30—60%
